Laboratory results as given in patent US4007196A, “4-Phenylpiperidine compounds” (priority 1973, dated 1977).
Where a name gives a salt, the structure may show the parent alone. Read-outs that look alike come from different tables or passages of the source.

What was measured:
Acute toxicity in mice = details: mouse, in vivo
cardiovascular system = test: Effect on the cardiovascular system (side-effects); format: in vivo; details: comparison in words
Excerpt: Known tricyclic thymoleptics affect the cardiovascular and peripheral autonomic nervous systems causing a wide range of side-effects. Cardiac disturbances and varying degrees of hypotension occur rather frequently and may be very serious.

[1] = Antidepressant daily dose; format: in vivo; details: daily doses
Protocol: In comparison, daily doses of 200-300 mg of imipramine are recommended.

[2] = daily doses; cited from earlier work
5HT-uptake = test: Antagonism of p-chloroamphetamine (PCA)-induced 5HT-depletion from rat brain (5HT-uptake inhibitory activity); format: in vivo; details: for ED50: rat brain
Excerpt: 5HT-uptake inhibitory activity
Antagonism of p-chloroamphetamine (PCA)-induced 5HT-depletion from rat brain: […]

SMILES | LD50 (Acute toxicity in mice; oral administration) [mg/kg] | LD50 (Acute toxicity in mice; sc, subcutaneous injection) [mg/kg] | effect on the cardiovascular system compared with tricyclic thymoleptics (cardiovascular system) | daily dose active as an antidepressant [1] [mg] | recommended daily dose [2] [mg] | ED50 p.o., antagonism of PCA-induced 5HT-depletion (5HT-uptake; po, 3 h) | ED50 (5HT-uptake; po, p.o., test drugs administered 2 hours before PCA, read-out: ED50 p.o., antagonism of PCA-induced 5HT-depletion) [mg/kg] | ED50 (5HT-uptake; sc, test drugs administered s.c. simultaneously with PCA, read-out: ED50 s.c., antagonism of PCA-induced 5HT-depletion) [mg/kg]
Fc1ccc(C2CCNCC2COc2ccc3c(c2)OCO3)cc1 (single isomer, unassigned) [GF 74, (-)-α-4-(4-Fluorophenyl)-3-(1,3-benzdioxolyl-(3))-oxymethyl piperidine maleate] | 500 | 845 | affect the cardiovascular system less than do the most common tricyclic thymoleptics | 15 to 25 | – | – | – | –
CN(C)CCCN1c2ccccc2CCc2ccccc21 [Imipramine] | – | – | – | – | 200 to 300 | + | 44 | 8
